Results reported in article PMC5104425, “A Novel Selective Inhibitor of Delta-5 Desaturase Lowers Insulin Resistance and Reduces Body Weight in Diet-Induced Obese C57BL/6J Mice” (PLoS ONE, 2016).

Tests used:
rat D6D = biological target: T1, rat D6D (Rattus norvegicus, UniProt Q9Z122); assay: In vitro enzyme assay for desaturase activity (hepatic microsomes), D6D; format: biochemical
T1 construct: using hepatic microsomes prepared from SD rats; from tissue; host or cells: liver microsomes of SD rats (CLEA, Japan)
Experimental: Therefore, we also confirmed that compound-326 has no effect on D9D activity. Inhibitory activity of compound-326 on rat D5D, D6D, and D9D was evaluated using hepatic microsomes prepared from SD rats (CLEA, Japan) as described previously. Assays were performed in a total volume of 30 μL in 96-well plates in a buffer containing 100 mM NaHPO4, 150 mM KCl, 10 mM NaF, 1.5 mM glutathione, 3 mM MgCl2, 1 mM NADH, 3 mM ATP, 0.3 mM CoA-SH, and 0.1% fatty acid free bovine serum albumin (BSA, Sigma, St. Louis, MO); and 0.1 μCi/well of [^14C] DGLA or [^14C] linoleic acids (ARC, St. Louis, MO) were used as substrates for measuring D5D and D6D activities, respectively. After pre-incubation of the test compound with rat liver microsomes (final 1.0 mg/mL) for 5 min, the reaction was started by the addition of NADH, ATP, and the substrates, and the reaction mixture was incubated for another 120 min at room temperature. For D9D assay, [^14C] stearoyl-CoA (PerkinElmer, Waltham, MA) was used in the absence of NADH, ATP, and CoA-SH, and D9D enzyme reaction was performed for 30 min. The reactions were then terminated by the addition of 0.63 N NaOH. […] 2.3 (Fujifilm) and IC50 values were determined using the conversion ratio from the radioactive substrates (20:3n6, 18:2n6 and 18:0) to the products (20:4n6, 18:3n6 and 18:1n9).

human D9D = biological target: T2, human D9D (Homo sapiens, UniProt O00767); assay: In vitro cell-based assay for desaturase activity (HepG2), D9D
T2 construct: endogenous in cells; host or cells: HepG2
T2 sequence (O00767 1-359): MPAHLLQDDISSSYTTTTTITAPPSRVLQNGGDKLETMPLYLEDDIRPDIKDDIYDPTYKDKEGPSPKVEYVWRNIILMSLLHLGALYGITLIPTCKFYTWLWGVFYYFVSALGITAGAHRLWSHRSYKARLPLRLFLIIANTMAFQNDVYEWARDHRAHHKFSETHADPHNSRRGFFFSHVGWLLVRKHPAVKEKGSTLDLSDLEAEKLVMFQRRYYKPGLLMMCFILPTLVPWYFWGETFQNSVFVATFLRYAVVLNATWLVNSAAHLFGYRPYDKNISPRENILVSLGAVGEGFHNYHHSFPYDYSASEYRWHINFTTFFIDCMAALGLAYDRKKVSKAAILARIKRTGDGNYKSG
Experimental: HepG2 cells were seeded in 96-well cell culture plates at 100 000 cells/well and incubated overnight in DMEM supplemented with 10% fetal bovine serum, 100 U/mL penicillin, and 100 μg/mL streptomycin in 5% CO2 at 37°C. The cells were washed twice with 200 μL of PBS and incubated with the test compounds in DMEM with 0.1% fatty acid free BSA for 30 min. Then, 0.1 μCi/well of [^14C]-labeled DGLA, linoleic acid, and stearic acid (ARC, St. Louis, MO) were added for each desaturase assay. After incubation for 3 h at 37°C, the cells were washed 3 times with 200 μL of PBS to remove [^14C]-labeled substrates in the medium and 0.63 N of NaOH was added to saponify fatty acids. Radioactive substrates and products were extracted, separated, and analyzed using the method as described above.

T1 sequence (Q9Z122 whole entry): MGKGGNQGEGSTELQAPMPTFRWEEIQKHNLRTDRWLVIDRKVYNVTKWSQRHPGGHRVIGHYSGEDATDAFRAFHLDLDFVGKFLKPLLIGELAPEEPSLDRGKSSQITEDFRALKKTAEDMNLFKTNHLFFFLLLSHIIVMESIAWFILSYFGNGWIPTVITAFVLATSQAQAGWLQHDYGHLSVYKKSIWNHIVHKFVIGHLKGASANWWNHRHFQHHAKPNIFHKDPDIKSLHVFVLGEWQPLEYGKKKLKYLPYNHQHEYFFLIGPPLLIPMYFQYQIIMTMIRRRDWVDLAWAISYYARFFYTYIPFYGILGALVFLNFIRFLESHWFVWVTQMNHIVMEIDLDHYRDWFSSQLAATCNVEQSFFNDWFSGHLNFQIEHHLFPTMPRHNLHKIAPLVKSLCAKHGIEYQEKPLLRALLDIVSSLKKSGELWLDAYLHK

SMILES: O=C1Cc2c(nc(OCC(F)(F)C(F)(F)F)n(-c3ccc(OCC(F)(F)F)cc3)c2=O)N1 [Compound-326, 2-(2,2,3,3,3-Pentafluoropropoxy)-3-[4-(2,2,2-trifluoroethoxy)phenyl]-5,7-dihydro-3H-pyrrolo[2,3-d]pyrimidine-4,6-dione]
- inhibition of D6D activity (rat D6D): almost no inhibition
- IC50 (rat D6D; Enzyme (hepatic microsomes)): > 10 µM
- IC50 (human D9D): > 10 µM
